# Substitutions are numbered along the chain they refer to. Values joined by “and” are separate entries in the source; they are usually repeats but may differ in a detail not shown here. Equal entries are not always repeated. Where two headings read alike, the source gives them in different places.
# Assays:
# [1] = molecular target: T1, F666A mutant TRPV3 (Mus musculus, UniProt Q8K424, F666A); assay: Fura-2 ratiometric Ca2+ measurement, activation by 2-APB; format: cell-based; settings: for F340/F380 change normalized to approximated maximal value at saturating 2-APB: F666A
# T1 construct: expressed in transfected cells; host or cells: HEK 293 S GnTI- cells (baculovirus transduction)
# T1 sequence (Q8K424 1-791 F666A): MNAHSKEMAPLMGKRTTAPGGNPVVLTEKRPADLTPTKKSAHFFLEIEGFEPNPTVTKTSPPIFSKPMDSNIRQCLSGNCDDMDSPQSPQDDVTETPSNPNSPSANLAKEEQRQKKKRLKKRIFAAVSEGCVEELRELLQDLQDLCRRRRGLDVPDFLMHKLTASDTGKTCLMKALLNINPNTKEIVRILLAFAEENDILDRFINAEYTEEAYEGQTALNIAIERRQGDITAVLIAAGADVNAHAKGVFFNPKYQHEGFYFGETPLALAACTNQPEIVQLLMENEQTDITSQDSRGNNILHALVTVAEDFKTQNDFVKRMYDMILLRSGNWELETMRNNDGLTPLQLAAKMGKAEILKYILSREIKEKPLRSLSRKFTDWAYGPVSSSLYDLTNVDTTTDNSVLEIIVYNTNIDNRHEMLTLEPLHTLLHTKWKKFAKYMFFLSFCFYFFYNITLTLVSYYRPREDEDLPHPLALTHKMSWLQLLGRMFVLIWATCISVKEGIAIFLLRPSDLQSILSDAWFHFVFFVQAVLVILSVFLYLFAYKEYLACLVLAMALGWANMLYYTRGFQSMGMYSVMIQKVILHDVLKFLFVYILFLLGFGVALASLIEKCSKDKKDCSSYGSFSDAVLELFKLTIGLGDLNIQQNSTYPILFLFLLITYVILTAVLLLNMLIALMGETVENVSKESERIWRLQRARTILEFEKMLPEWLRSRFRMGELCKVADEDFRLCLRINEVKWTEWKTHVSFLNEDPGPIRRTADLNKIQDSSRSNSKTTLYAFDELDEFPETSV
# Experimental: GFP-free C-terminally strep-tagged wild-type TRPV3, TRPV3-Y564A, TRPV3-Y594A, TRPV3-F633A, TRPV3-I663W, and TRPV3-F666A were expressed in HEK 293 S GnTI^− cells as previously described[41],[42],[53]. In short, 48 h after transduction, 1-ml aliquots of cell suspension were collected by centrifugation at 550 g for 5 min using an Eppendorf 5424 centrifuge. The cells were resuspended in the pre-warmed modified HEPES-buffered saline (HBS) containing 118 mM NaCl, 4.8 mM KCl, 1 mM MgCl2, 5 mM D-glucose, and 10 mM HEPES pH 7.4 and 5 μg/ml Fura-2 AM (Thermo Fisher Scientific) and incubated for 45 min at 37 °C. The Fura-2-loaded cells were then centrifuged for 5 min at 550 g, resuspended in the pre-warmed, modified HBS and incubated again for 30 min at 37 °C in the dark. The cells were subsequently pelleted and washed twice in the modified HBS. The washed cell pellets were kept on ice in the dark before taking an aliquot for fluorescence measurements. […] We used the lower CaCl2 concentration than before[42],[28] (2.5 mM) to minimize non-specific effects, which often appeared as a drift in the Fura-2 signal at high Ca^2+ concentration, presumably due to cell death as a result of calcium overload. Fluorescence measurements were conducted using a QuantaMaster 40 spectrofluorometer (Photon Technology International) at room temperature in a quartz cuvette under constant stirring. After 60 s since the beginning, the recording was paused and 2-APB was added. After the addition of 2-APB, the recording was continued for the additional 140 s. Changes in intracellular Ca^2+ were measured by taking the ratio of fluorescence emitted at 510 nm at the excitation wavelength of 340 nm and 380 nm. […] The data were processed using Origin 9.0 (OriginLab) software.
# [2] = system: wild-type TRPV3; settings: cited from earlier work; for F340/F380 change normalized to approximated maximal value at saturating 2-APB: WT, published before
# [3] = molecular target: T2, TRPV3-Y594A (Mus musculus, UniProt Q8K424, Y594A); assay: Fura-2 ratiometric Ca2+ measurement, control application of 2-APB; format: cell-based
# T2 construct: expressed in transfected cells; host or cells: HEK 293 S GnTI- cells (baculovirus transduction)
# T2 sequence (Q8K424 1-791 Y594A): T1 sequence (Q8K424 1-791 F666A) with Y594A, A666F
# From the text: The portal site in TRPV3 has not been previously shown to bind small-molecule inhibitors. This site, however, was originally proposed to be an entry pathway for local anesthetics to the pore of sodium channels[47]–[49] and found to accommodate cannabidiol in TRPV2, a closely-related representative of the vanilloid subfamily of TRP channels. […] We concluded that the Y594A mutation altered gating properties of TRPV3 and excluded this mutant from further analysis.
# GFP-free C-terminally strep-tagged wild-type TRPV3, TRPV3-Y564A, TRPV3-Y594A, TRPV3-F633A, TRPV3-I663W, and TRPV3-F666A were expressed in HEK 293 S GnTI^− cells as previously described[41],[42],[53]. In short, 48 h after transduction, 1-ml aliquots of cell suspension were collected by centrifugation at 550 g for 5 min using an Eppendorf 5424 centrifuge. […] The washed cell pellets were kept on ice in the dark before taking an aliquot for fluorescence measurements. […] Fluorescence measurements were conducted using a QuantaMaster 40 spectrofluorometer (Photon Technology International) at room temperature in a quartz cuvette under constant stirring. […] Changes in intracellular Ca^2+ were measured by taking the ratio of fluorescence emitted at 510 nm at the excitation wavelength of 340 nm and 380 nm. […]
compound,measurement,setting,value
NCCOB(c1ccccc1)c1ccccc1 [2-APB],F340/F380 change normalized to approximated maximal value at saturating 2-APB,"[1]; 2-APB Conc 0.1, single experiments",0.01591 and 0.01218 and 0.01441
same,F340/F380 change normalized to approximated maximal value at saturating 2-APB,"[1]; 2-APB Conc 0.3, single experiments",0.0415 and 0.03827 and 0.03455
same,F340/F380 change normalized to approximated maximal value at saturating 2-APB,"[1]; 2-APB Conc 1, single experiments",0.08549 and 0.07903 and 0.08027
same,F340/F380 change normalized to approximated maximal value at saturating 2-APB,"[1]; 2-APB Conc 3, single experiments",0.1735 and 0.1693 and 0.1578
same,F340/F380 change normalized to approximated maximal value at saturating 2-APB,"[1]; 2-APB Conc 10, single experiments",0.3611 and 0.3532 and 0.3454
same,F340/F380 change normalized to approximated maximal value at saturating 2-APB,"[1]; 2-APB Conc 30, single experiments",0.6328 and 0.6126 and 0.5903
same,F340/F380 change normalized to approximated maximal value at saturating 2-APB,"[1]; 2-APB Conc 100, single experiments",0.7746 and 0.7881 and 0.7839
same,F340/F380 change normalized to approximated maximal value at saturating 2-APB,"[1]; 2-APB Conc 300, single experiments",0.7811 and 0.756 and 0.8326
same,"nHill of activation curve, F666A",[1]; n = 3,0.80 ± 0.02
same,EC50,"[1]; n = 3, read-out: EC50, 2-APB-induced activation of F666A",20.7 ± 0.9 µM
same,F340/F380 change normalized to approximated maximal value at saturating 2-APB,"[2]; 2-APB Conc 3.2, single experiments",0.1142 and 0.08511 and 0.06324 and 0.1042
same,F340/F380 change normalized to approximated maximal value at saturating 2-APB,"[2]; 2-APB Conc 102.4, single experiments",0.8797 and 0.5873 and 0.8594 and 0.9531
same,F340/F380 change normalized to approximated maximal value at saturating 2-APB,"[2]; 2-APB Conc 204.8, single experiments",0.97 and 1 and 0.6572 and 1.041
same,"nHill of activation curve, wild-type TRPV3","[2]; n = 4, published before",1.19 ± 0.09
same,EC50,"[2]; n = 4, published before, read-out: EC50, 2-APB-induced activation of wild-type TRPV3",27.4 ± 4.5 µM
same,"change in F340/F380 on control application of 2-APB, Y594A",[3],barely detectable changes
